“Also recorded” adds a separate entry of the source.

Data on two molecules can be found in patent US9618513B2, “Compositions and methods for detecting and treating colorectal cancer” (The Regents of the University of Michigan, priority 2014, dated 2017).

Holding throughout (type): cell-based, human
One test relates to H3K79me2 (DOT1L). Nature of the test: Histone marks by western blot in colon cancer cells. How it is done: (A) IL-22 induces H3K79me2 in colon cancer cells. Colon cancer cells were treated with IL-22 for 48 hours. Total histone modifications were analyzed by western blot. (B, C) DOT1L inhibitor, EPZ004777 suppresses colon cancer sphere formation induced by IL-22. Colon cancer sphere assay was performed in the presence of IL-22 and EPZ004777. Sphere numbers were recorded. DLD-1 cells (B), primary colon cancer cells (C). (n=5, P<0.05). (D, E) IL-22 stimulates DOT1L complex gene expression. Colon cancer cells were cultured for 12 hours with IL-22. DOT1L complex gene expression was quantified by real-time PCR. DLD-1 cells (D), primary colon cancer cells (E). (n=3, P<0.05). (F) DOT1L knock down results in reduced colon cancer sphere formation induced by IL-22. Colon cancer sphere assay was performed with colon cancer cells expressing sh-DOT1L or vector in the presence of IL-22. Sphere numbers were recorded. (n=5, P<0.05). (G-I), IL-22 causes higher occupancy of H3K79me2 on core stem cell gene promoters. H3K79me2-ChIP assay was performed in DLD-1 colon cancer cells cultured with IL-22. One of 3 experiments is shown. […]
DLD1 and primary colon cancer cells (#2) were cultured with different concentrations of EPZ004777. Histone marks were detected by western blot. […]
Colon cancer cells were transfected with control vectors or the shDOT1L vector. Histone marks were detected by Western blot. […]

For a further test, the system named is colon cancer cells. Nature of the test: Colon cancer cell proliferation (Ki67 FACS, H3 thymidine incorporation, cell counting). The source says:
A. GSEA analysis identifies proliferation pathways have positive correlation with IL-22. B. Cell proliferation maker Ki67 was detected by FACS. C. H^3 Thymidine Incorporation was used to detect the function of IL-22 in cell proliferation. D. Cell number was counted after stimulated with IL-22. E. Cells isolated from colon cancer tissue (Tumor cells and Leukocytes) were stimulated with a-CD3 and […] for 3 days, and supernatant mixed with or without anti-IL-22 antibody was co-cultured with DLD1 cells for 24 h to test cell proliferation. F. Cell cyclin-dependent kinase and kinase inhibitors were analyzed by Real-Time PCR.
(§1) A, C. Cell proliferation was analyzed using H^3 Thymidine Incorporation. B. The level of total H3K79m2 and H3K27me3 was measured by Western Blot. D. PcG proteins of EZH2, EED, SUZ12 was increased with IL-22(20 ng/ml) treatment. E. EZH2, SUZ12 and EED was detected by Western Blot after IL-22 treated for 24 h or 48 h. F. EZH2 inhibitor DZNep reduced cell proliferation. G.H. The efficiency of EZH2 and SUZ12 knock down was tested by Western Blot. I.J. Cell proliferation was analyzed using H^3 Thymidine Incorporation after knock down of EZH2 and SUZ12. K.L. Relative expression of cyclin-dependent kinase inhibitors (p16 and p18) in shEZH2, shSUZ12 and Dznep treated cells after IL-22 treatment. M. The level of H3K27me3 in the promoter of p16 and p18 was analyzed by ChIP assay.
A. The protein level of phosphorylated STAT3, STAT1 and STATS were activated by IL-22. B. The effect of STAT3 knock down. C. The effect of IL-22 on cell proliferation was analyzed using H^3 Thymidine Incorporation in Stat3 knock down cells. D. Knock down of STAT3 reduced the expression of EZH2 and SUZ12. E. Based on the ENCODE STAT3-ChIP-Seq data base, STAT3 occupancy on the promoter areas of SUZ12 and EED is shown. F. SUZ12/EED DNA was detected by ChIP assay using an antibody against STAT3, c-fos was used as a positive control.
Three primary colon cancer cell lines (SB, WR, JR) were established from fresh colon tissues. These primary colon cancer cells and DLD1 (ATCC) were studied. Colon cancer cells were treated with recombinant IL-22 (R&D) for different time points. The EZH2 inhibitor DZNep was added in conventional or sphere culture (see, e.g., Kryczek, I., et al., (2012) International journal of cancer 130, 29-39). Tumor cell sphere formation and gene expression were examined (see, e.g., Kryczek, I., et al., (2012) International journal of cancer 130, 29-39).

Test [1] deals with H3K27me3 in the promoter of p16 and p18. The test is described as follows: H3K27me3 ChIP at p16 and p18 promoters. The settings on record: after IL-22 stimulation. As to the method:
as §1
ChIP assay was performed according to the protocol (Upstate, Millipore; htt, followed by, p://www.millip, followed by, ore.com/techpublica, followed by, tions/tech1/mcproto407). Crosslinking was performed with 1% formaldehyde or 1% paraformaldehyde for 10 min. To enhance cell lysis, we ran the lysate through a 27 g needle three times and flash froze it in −80° C. Sonication was then performed with the Misonix 4000 water bath sonication unit at 15% amplitude for 10 min. Protein/DNA complex was precipitated by specific antibodies against H3K79me2, H3K27me3 (Millipore), Stat3 (Cell Signaling) and IgG control (Millipore). […]

As for `CC(C)N(CCCNC(=O)Nc1ccc(C(C)(C)C)cc1)C[C@H]1O[C@@H](n2ccc3c(N)ncnc32)[C@H](O)[C@@H]1O` [EPZ004777], the “H3K79me2 / H3K79 methylation” value with H3K79me2 (DOT1L) (DLD1 and primary colon cancer cells (#2), different concentrations) is “reduced; also recorded: specifically inhibits”. Besides, the “colon cancer cell proliferation induced by IL-22” value in the test with colon cancer cells (H3 thymidine incorporation) was “no influence”.

As for “IL-22: recombinant IL-22 (R&D systems), cytokine interleukin-22”, the “dimethylation of histone 3 lysine 79 (H3K79me2), total” value in the test with H3K79me2 (DOT1L) (colon cancer cells, IL-22 48 hours) is “selectively increased”. Besides, the “expression of Ki-67” value in the test on colon cancer cells (FACS) was “increased”. Moreover, in the test with colon cancer cells (H3 thymidine incorporation and cell number counting), the cell proliferation entry was “increased”. The “level of H3K27m3 in the promoter of p16 and p18” value in test [1] is “increased”.
